Results: patent US9226929B2, “Pharmaceutically active disubstituted triazine derivatives” (Bayer Intellectual Property GMBH, priority 2011, dated 2016)
pIC50: −log10 of the molar value.

Test system: cellular CDK9 activity (RNA Polymerase II Ser2 phosphorylation)
Assay: RNA-Polymerase II Ser2 Cellular Phosphorylation Assay
Assay type: cell-based
Settings: Homo sapiens; HCT-116 cells, normalized with tubulin; read-out: RNA Polymerase II Ser2 Phosphorylation (activity range), IC50
Experimental: 3.1 RNA-Polymerase II Ser2 Cellular Phosphorylation Assay:
HCT-116 cells (DSMZ, Braunschweig, Germany) were maintained in Mc Coy's cell culture medium+glutamine (PAN Biotech GmbH, Aidenbach, Germany) supplemented with 10% fetal calf serum (PAA Laboratories GmbH, Pasching, Austria) and grown at 37° C., 5% CO2. For the cellular phosphorylation assay, cells were seeded with 2×10^5 cells/well/1 ml in 24-well plates (Greiner Bio One, Frickenhausen, Germany; catalog #662160). The compounds of general formula (I) summarized in Table 6 were diluted from a 10 mM DMSO stock solution 1:10 in a total volume of 15 μL DMSO. After overnight incubation at 37° C./5% CO2, 1.5 μL of a compound diluted in DMSO was added to each sample well. Wells with cells and 0.15% DMSO in culture medium were used as positive controls, wells without cells and 0.15% DMSO in culture medium were used as negative controls. […] Phosphorylation of RNA Polymerase II Ser2 and tubulin levels for normalization were analyzed afterwards with the Multi-Array technology (Meso Scale Discovery, Gaithersburg, Md., USA), a combination of antibody coupled electrochemiluminescence detection and patterned arrays. […] Finally, plates were washed three times with Tris Wash Buffer, 150 μl 2× Read Buffer (Meso Scale Discovery) were added per well and plates were analyzed immediately in a Sector Imager from Meso Scale Discovery. […]

SMILES: NS(=O)(=O)Cc1cccc(Nc2ncnc(N3CCc4ncccc4C3)n2)c1 [Compound B38, 3-[(4-(7,8-Dihydro-1,6-naphthyridin-6(5H)-yl)-1,3,5-triazin-2-yl)amino]-benzenemethanesulfonamide]
- pIC50: < 5.00
